The source made the active and inactive calls. The calls are words filed in the database; no cut-off is given here.
Assays:
RAW264.7 [1] = experiment: Antiinflammatory activity in mouse RAW264.7 cells assessed as inhibition of LPS-stimulated NO production at 0.1 to 100 uM after 24 hrs by spectrophotometry; format: functional, cell-based
RAW264.7 [2] = experiment: Antiinflammatory activity in mouse RAW264.7 cells assessed as inhibition of LPS-stimulated NO production at 100 uM after 24 hrs by spectrophotometry; format: functional
RAW264.7 [3] = experiment: Cytotoxicity against mouse RAW264.7 cells by Alamar blue assay; format: cell-based

Structure (SMILES) | Imax (RAW264.7 [2]) [%] | inhibition (RAW264.7 [2]) | other results
CCCCCCCCCC(=O)O[C@@H]1[C@H](O[C@@H](C[C@H](OC(C)=O)/C(C)=C/CO[C@@H]([C@H](O)[C@H](O)CO)[C@H](O)CO)[C@](C)(O)CCC=C(C)C)O[C@H](CO)[C@@H](O)[C@@H]1O [COSMOSPORASIDE D] | 71.7 | – | inhibition (RAW264.7 [1]): Dose-dependent effect; IC50 (RAW264.7 [1]; RAW264.7, 24 h): 66 µM
CC(=O)OC(CC(=O)C(C)CCC=C(C)C)/C(C)=C/CO[C@@H]([C@H](O)[C@H](O)CO)[C@H](O)CO (stereo partly drawn) | – | Active | –
CC(C)=CCC/C(C)=C/CC/C(C)=C/CO[C@@H]([C@H](O)[C@H](O)CO)[C@H](O)CO [COSMOSPORASIDE A] | 54.52 | – | Activity (RAW264.7 [3]): Toxic
CC(=O)O[C@@H](C[C@H](O[C@@H]1O[C@H](CO)[C@@H](O)[C@H](O)[C@@H]1O)[C@](C)(O)CCC=C(C)C)/C(C)=C/CO[C@@H]([C@H](O)[C@H](O)CO)[C@H](O)COCC=C(C)C | – | inactive | –
CCCCC/C=C\CCC(=O)O[C@@H]1[C@H](O[C@@H](C[C@H](OC(C)=O)/C(C)=C/CO[C@@H]([C@H](O)[C@H](O)CO)[C@H](O)CO)[C@](C)(O)CCC=C(C)C)O[C@H](CO)[C@@H](O)[C@@H]1O | – | Active | –
